US7531629B2, “Tumor associated antigen peptides and use of same as anti-tumor vaccines” (Yeda Research and Development Co. Ltd., priority 1998, dated 2009)

How the values were obtained:
RMA-S-HhD cells [1] = assay: CTL from peptide-immunized HhD mice against loaded RMA-S-HhD target cells; type: in vivo; settings: for ability to evoke specific CTL responses (lysis of peptide-loaded target cells): additional Uroplakin Ib, II, III peptides, three weekly immunizations, FIGS. 23a-e; for lysis of RMA-S-HhD target cells loaded with MUC-1 peptide: immunization with a pool of the MUC-1-derived synthetic peptides; for lysis of RMA-S-HhD targets loaded with homologous BA-46 peptide: CTL from HhD mice immunized with BA-46 peptides; for lymphocyte response specifically lysing CRIPTO-1 peptide-loaded target cells: HhD mice immunized with CRIPTO-1 peptide pools, FIGS. 24a-c
Protocol: (§1) Vaccination: Mice were immunized intraperitonealy three times at 7-day intervals, with 2×10^6 irradiated (5,000 rad) tumor cells, or with peptide-loaded RMA-S-HhD-B7.1 transfectants. Peptide loading of RMA-S-HhD-B7.1 cells was performed as follows: After washing the cells 3 times in PBS, the surface expression of HhD monochins was stabilized by a 4 hours culture at 26° C. Synthetic peptides, or peptide extracts were added to 10×10^6 cells in 1 ml of opti-MEM (Gibco) medium to a concentration of 100 μM or 1 mM, respectively. The cells were incubated at 26° C. and for additional 3 hours at 37° C. Peptide loaded RMA-S-HhDσ-σB7.1 cells were irradiated (5000 rad), washed, resuspended in PBS and injected into mice. In mixed synthetic vaccines, RMA-S-HhD-B7.1 cells were loaded separately with each peptide and pooled before vaccination.
(§2) In vitro cytotoxicity assays: Mice were immunized intraperitonealy three times at 7-day intervals, with 2×10^6 irradiated (5,000 rad) tumor cells, or with peptide-loaded RMA-S-HhD-B7.1 transfectants. Spleens were removed on day 10 after the last immunization and splenocytes were restimulated in vitro with either irradiated tumor cells (for mice immunized with tumor cells) or with lymphocytes pulsed with 100 μM synthetic peptides or 1 mM patients-derived extract in opti-MEM (Gibco) medium. Restimulated lymphocytes were maintained in RPMI 1640 medium containing 10% FCS, 1 mM glutamine, combined antibiotics, 1 mM sodium pyruvate, 10 mM HEPES, pH 7.4, 5×10^−5 M β-mercaptoethanol, and 1% nonessential amino acids (RPMI-HEPES medium) for 5 days. Viable lymphocytes (effector cells), were separated by lymphocyte-M (Cedarlane, Ontario, Canada) centrifugation, resuspended in RPMI-HEPES medium, and admixed at different ratios with 5×10^3 peptide loaded RMA-S-HhD cells, previously loaded with different peptides (see vaccination). CTL assays were performed in U-shaped microtiter wells, at 37° C., 5% CO2 for 5 hours. Cultures were terminated by centrifugation at 1,000 rpm for 10 minutes at 4° C. A total of 100 μl of the supernatants was mixed with scintillation fluids and counted in a beta counter. […] Spontaneous release was determined by incubation of 100 μl-labeled target cells with 100 μl of medium. Maximal release was determined by solubilization of target cells in 100 μl 0.1 M NaOH.
CTL induced in HhD mice recognize the same UP II peptides as human PBL: The immunogenicity of Uroplakin homologue peptides was also evaluated in a mouse model, in which the murine MHC class I genes are not expressed (D^b−/−, β2-microglobulin −/−, double knockout) and which is transgenic for a HLA-A2 and human β2-microglobulin monochain (HhD mice). The advantage of a HLA-A2 transgenic mouse model is that CTL epitopes can be detected more easily and reproducibly, without lengthy and repeated in vitro stimulations. The murine MHC knockout mice used herein has the additional advantage that their CTL repertoire is only HLA-A2 restricted and the CTL response against human tumor extract or human cell lines is not masked by a potential xenogeneic response. HhD mice were immunized with the 7 Uroplakin II homologue peptides or with the same TCC peptide extract used for stimulation of patient's PBL. Lymphocytes were obtained from the spleens of these mice and restimulated in vitro once with the corresponding peptides. […]

RMA-S-HhD cells [2] = assay: CTL from HhD mice immunized with tumor extracted peptides or DU145-HhD cells against loaded RMA-S-HhD target cells; type: cell-based; settings: for recognition and lysis of peptide loaded targets by anti-tumor extract CTL: CTL against breast tumor peptide extracts, E:T 50:1
Protocol: as §1
as §2, with “Cultures were terminated by centrifugation at 1,000 rpm for 10 minutes at 4° C.” left out
CTL induced in HhD mice recognize the same UP II peptides as human PBL: The immunogenicity of Uroplakin homologue peptides was also evaluated in a mouse model, in which the murine MHC class I genes are not expressed (D^b−/−, β2-microglobulin −/−, double knockout) and which is transgenic for a HLA-A2 and human β2-microglobulin monochain (HhD mice). The advantage of a HLA-A2 transgenic mouse model is that CTL epitopes can be detected more easily and reproducibly, without lengthy and repeated in vitro stimulations. […]

[3] = MHC stabilization assay: peptide binding to HhD on RMA-S-HhD cells, indirect FACS; design: species or system human; settings: peptide loaded RMA-S-HhD cells
Protocol: Measurement of peptide binding by stabilization of cell surface MHC: Peptide binding to HhD was measured by stabilization of HhD on RMA-S transfectants, using an indirect FACS assay as follows: 5×10^5 peptide loaded TAP-2 deficient RMA-S-HhD cells (see vaccination), were incubated with anti HLA monoclonal antibodies for 30 minutes at 4° C. After washing the cells with PBS-0.5%, BSA+0.1%, sodium azide, the second antibody, goat anti mouse-FITC (Jackson Lab.), was applied for 30 minutes at 4° C. Following washing, the amount of bound antibodies was detected by FACSscan […].
Mouse monoclonal antibodies. B-9-12, w6/32 (anti HLA A, B, C) and B.B7.2 (anti HLA-A2.1) were used for analyses.
Cytotoxic activity of human peripheral blood lymphocytes (PBL) against target cells pulsed with Uroplakin II peptide homologues: The human UP II amino acid sequence was screened for potential HLA-A2 binding, 9 amino acids peptides by a HLA binding motif program. We chose that particular HLA allele because it is present in 45% of the population. Seven 9-mer peptides, which were predicted to bind with high affinity to HLA-A2 were selected and synthesized (Table 1). The binding of these peptides to HLA-A2 was tested by an MHC stabilization assay utilizing TAP negative cells, which can present exogeneously bound peptides. The RMA-S cells (30) transfected by the HhD construct were loaded with various concentrations of UP II peptides and then reacted with anti-HLA antibody. High affinity binding was shown for all 7 peptides by FACS analyses (FIG. 1).

MDA-MB-157-HhD cells = assay: Lysis of MDA-MB-157-HhD breast carcinoma cells by CTL from immunized HhD mice; type: in vitro; settings: CTL from HhD mice immunized with the named substance
prostate cancer = settings: DC based vaccine, 51 prostate cancer patients, HLA-A2; cited from earlier work
T2 cells = assay: CTL assay with patients' PBL resensitized with pooled TCC extracted peptides; type: cell-based, human; settings: CTL from TCC patients' PBL

AILCWTFWV (listed as Homo sapiens) [Uroplakin Ib/B1]
ability to evoke specific CTL responses (lysis of peptide-loaded target cells) (RMA-S-HhD cells [1]): could elicit lymphocytes which specifically lysed target cells

ALASTAPPV (listed as Homo sapiens) [MUC-1/E6]
recognition and lysis of peptide loaded targets by anti-tumor extract CTL (RMA-S-HhD cells [2]): recognized and lysed
peptide binding to HhD, stabilization of cell surface HhD (FACS) [3]: higher binding affinity
lysis of RMA-S-HhD target cells loaded with MUC-1 peptide (RMA-S-HhD cells [1]): 15%
lysis of breast carcinoma line HhD transfectant (MDA-MB-157-HhD) relative to parental cells (MDA-MB-157-HhD cells): Preferential lysis

ALFDIESKV (listed as Homo sapiens) [PSMA5]
patients responding by decreased levels of serum PSA (prostate cancer): 7 patients

FILMFIVYA (listed as Homo sapiens) [Uroplakin Ib/B2]
ability to evoke specific CTL responses (lysis of peptide-loaded target cells) (RMA-S-HhD cells [1]): could elicit lymphocytes which specifically lysed target cells

FLLVGFAGA (listed as Homo sapiens) [Uroplakin III/3.3]
ability to evoke specific CTL responses (lysis of peptide-loaded target cells) (RMA-S-HhD cells [1]): could elicit lymphocytes which specifically lysed target cells

FLSFHISNL (listed as Homo sapiens) [MUC-1/F6]
lysis of RMA-S-HhD target cells loaded with MUC-1 peptide (RMA-S-HhD cells [1]): 15%

GLQHWVPEL (listed as Homo sapiens) [BA-46-7]
lysis of RMA-S-HhD targets loaded with homologous BA-46 peptide (RMA-S-HhD cells [1]): 60%

ILCWTFWVL (listed as Homo sapiens) [Uroplakin Ib/B5]
ability to evoke specific CTL responses (lysis of peptide-loaded target cells) (RMA-S-HhD cells [1]): could elicit lymphocytes which specifically lysed target cells

ILNAYLVRV (listed as Homo sapiens) [Uroplakin III/3.2]
ability to evoke specific CTL responses (lysis of peptide-loaded target cells) (RMA-S-HhD cells [1]): could elicit lymphocytes which specifically lysed target cells

KILLAYFIL (listed as Homo sapiens) [Uroplakin Ib/B6]
ability to evoke specific CTL responses (lysis of peptide-loaded target cells) (RMA-S-HhD cells [1]): could elicit lymphocytes which specifically lysed target cells

KMARFSYSV (listed as Homo sapiens) [Cripto-1/C1]
lymphocyte response specifically lysing CRIPTO-1 peptide-loaded target cells (RMA-S-HhD cells [1]): can elicit lymphocyte response which specifically lyses CRIPTO-1 peptide-loaded target cells

KMVRFSYSV (listed as Homo sapiens) [Cripto-1/C10]
lymphocyte response specifically lysing CRIPTO-1 peptide-loaded target cells (RMA-S-HhD cells [1]): can elicit lymphocyte response which specifically lyses CRIPTO-1 peptide-loaded target cells

LLLTVLTVV (listed as Homo sapiens) [MUC-1/D6]
recognition and lysis of peptide loaded targets by anti-tumor extract CTL (RMA-S-HhD cells [2]): recognized and lysed
peptide binding to HhD, stabilization of cell surface HhD (FACS) [3]: higher binding affinity
lysis of RMA-S-HhD target cells loaded with MUC-1 peptide (RMA-S-HhD cells [1]): 38%
lysis of breast carcinoma line HhD transfectant (MDA-MB-157-HhD) relative to parental cells (MDA-MB-157-HhD cells): Preferential lysis

MLAGICLSI (listed as Homo sapiens) [Cripto-1/C12]
lymphocyte response specifically lysing CRIPTO-1 peptide-loaded target cells (RMA-S-HhD cells [1]): can elicit lymphocyte response which specifically lyses CRIPTO-1 peptide-loaded target cells

MLVGICLSI (listed as Homo sapiens) [Cripto-1/C8]
lymphocyte response specifically lysing CRIPTO-1 peptide-loaded target cells (RMA-S-HhD cells [1]): can elicit lymphocyte response which specifically lyses CRIPTO-1 peptide-loaded target cells

NLFETPVEA (listed as Homo sapiens) [BA-46-6]
lysis of RMA-S-HhD targets loaded with homologous BA-46 peptide (RMA-S-HhD cells [1]): 40%

NLTISDVSV (listed as Homo sapiens) [MUC-1/A7]
recognition and lysis of peptide loaded targets by anti-tumor extract CTL (RMA-S-HhD cells [2]): recognized and lysed
peptide binding to HhD, stabilization of cell surface HhD (FACS) [3]: higher binding affinity
lysis of RMA-S-HhD target cells loaded with MUC-1 peptide (RMA-S-HhD cells [1]): 30%
lysis of breast carcinoma line HhD transfectant (MDA-MB-157-HhD) relative to parental cells (MDA-MB-157-HhD cells): Preferential lysis

RLLAALCGA (listed as Homo sapiens) [BA-46-9]
lysis of RMA-S-HhD targets loaded with homologous BA-46 peptide (RMA-S-HhD cells [1]): 40%

VLLSVAMFL (listed as Homo sapiens) [Uroplakin II/8]
ability to evoke specific CTL responses (lysis of peptide-loaded target cells) (RMA-S-HhD cells [1]): could elicit lymphocytes which specifically lysed target cells

YMDGTMSQV [Tyrosinase, reference compound]
lysis of T2 cells loaded with nonspecific peptides (T2 cells): no lysis
specific lysis of loaded RMA-S-HhD cells (RMA-S-HhD cells [2]; CTL from HhD mice immunized with breast tumor extract peptide, E:T 100:1): No lysis
lysis of loaded RMA-S-HhD cells, lytic units (LU30) (RMA-S-HhD cells [1]; CTL from HhD mice immunized with human Uroplakin II peptides 1-7, substance loaded on targets): no lysis
ability to evoke specific CTL responses (lysis of peptide-loaded target cells) (RMA-S-HhD cells [1]): no significant lysis
lysis of targets loaded with nonspecific peptides (RMA-S-HhD cells [1]; overall, all immunized groups of Example 2): no lysis
